Measured values from ChEMBL document CHEMBL1201862, “PubChem BioAssay data set” (2004).
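Step 1: Grow cells in 96-well plates. Step 2: Expose to compound for 48 hours at 5 concentrations. Step 3: Interpolate endpoints linearly; if unreached, use highest concentration. GI50 marks 50% less growth.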 Calls of active or inactive are those of the source. Cut-off read from the data, not from the text of the source: active = GI50 up to about 1.1 µM and inactive = higher.

Columns and labels:
Test in all cases: growth of human tumour cells (NCI), 48 h
OVCAR-5 = test system: OVCAR-5
SNB-75 = test system: SNB-75
OVCAR-3 = test system: OVCAR-3
OVCAR-4 = test system: OVCAR-4
MOLT-4 = test system: MOLT-4
BT-549 = test system: BT-549
HCT-116 = test system: HCT-116
UACC-62 = test system: UACC-62
TK-10 = test system: TK-10
SF-295 = test system: SF-295
M14 = test system: M14
SR = test system: SR
A549 = test system: A549
NCI-H23 = test system: NCI-H23
K562 = test system: K562
SF-268 = test system: SF-268
CAKI-1 = test system: CAKI-1
MDA-N = test system: MDA-N
LOX IMVI = test system: LOX IMVI
EKVX = test system: EKVX

Row | Compound | GI50 (OVCAR-5) | GI50 (SNB-75) | GI50 (OVCAR-3) | GI50 (OVCAR-4) | GI50 (MOLT-4) | GI50 (BT-549) | GI50 (HCT-116) | GI50 (UACC-62) | GI50 (TK-10) | GI50 (SF-295) | GI50 (M14) | GI50 (SR) | GI50 (A549) | GI50 (NCI-H23) | GI50 (K562) | GI50 (SF-268) | GI50 (CAKI-1) | GI50 (MDA-N) | GI50 (LOX IMVI) | GI50 (EKVX)
1 | O=C1CC(=O)NC(NN2C(=O)CSC2c2ccc(Cl)cc2)=N1 (configuration not stated) | > 100 µM (inactive) | > 100 µM (inactive) | > 100 µM (inactive) | > 100 µM (inactive) | 28 µM (inactive) | 33.8 µM (inactive) | > 100 µM (inactive) | 21.8 µM (inactive) | > 100 µM (inactive) | > 100 µM (inactive) | 55.6 µM (inactive) | 39.2 µM (inactive) | > 100 µM (inactive) | 25.5 µM (inactive) | > 100 µM (inactive) | 45 µM (inactive) | > 100 µM (inactive) | 54.8 µM (inactive) | – | –
2 | O=C(Cn1c2ccc(Br)cc2c2nc3ccccc3nc21)NCc1ccccc1 | > 100 µM (inactive) | 4.45 µM (inactive) | > 100 µM (inactive) | 53.1 µM (inactive) | > 100 µM (inactive) | 39.9 µM (inactive) | 94.6 µM (inactive) | 24.4 µM (inactive) | 17.7 µM (inactive) | 29 µM (inactive) | 89.9 µM (inactive) | 39.4 µM (inactive) | > 100 µM (inactive) | 37.7 µM (inactive) | > 100 µM (inactive) | 38 µM (inactive) | 26.8 µM (inactive) | > 100 µM (inactive) | 42.9 µM (inactive) | –
3 | Fc1cc(C2=Nn3c(CNc4ccc(Cl)cc4)nnc3S/C2=C\c2ccc(-c3ccc(Cl)cc3)o2)c(Cl)cc1Cl | 18.7 µM (inactive) | – | 29.6 µM (inactive) | – | 3.33 µM (inactive) | > 100 µM (inactive) | 63.2 µM (inactive) | 13.6 µM (inactive) | 17.5 µM (inactive) | 22.3 µM (inactive) | 53.3 µM (inactive) | 29.6 µM (inactive) | 35.6 µM (inactive) | 81.8 µM (inactive) | 11.9 µM (inactive) | 53.2 µM (inactive) | 23.6 µM (inactive) | > 100 µM (inactive) | 22.8 µM (inactive) | 7.52 µM (inactive)
4 | CSC[C@H](NC(=O)COc1cccc2cnccc12)C(=O)NC(Cc1ccccc1)C(O)C(=O)N1CSC[C@H]1C(=O)NC(C)(C)C (some centres not stated) | > 100 µM (inactive) | 78.9 µM (inactive) | 69.8 µM (inactive) | 57.5 µM (inactive) | 17.7 µM (inactive) | > 100 µM (inactive) | 23 µM (inactive) | 57.3 µM (inactive) | > 100 µM (inactive) | 60.4 µM (inactive) | 78.2 µM (inactive) | 36.8 µM (inactive) | 32.4 µM (inactive) | 82.4 µM (inactive) | 32.5 µM (inactive) | 16.9 µM (inactive) | – | 38.4 µM (inactive) | 31.8 µM (inactive) | –
5 | COc1ccc(-c2nc(-c3cnccn3)n(C/C=C/c3ccccc3)n2)cc1 | > 100 µM (inactive) | 21.8 µM (inactive) | 40.4 µM (inactive) | 21.3 µM (inactive) | > 100 µM (inactive) | 40.7 µM (inactive) | 92.3 µM (inactive) | 35.2 µM (inactive) | – | 32.1 µM (inactive) | > 100 µM (inactive) | > 100 µM (inactive) | 51.6 µM (inactive) | > 100 µM (inactive) | > 100 µM (inactive) | – | – | > 100 µM (inactive) | > 100 µM (inactive) | –
6 | O=c1n(CCCN2CCOCC2)nc2n1-c1ccc3ccccc3c1SC2 | 66.7 µM (inactive) | 47.8 µM (inactive) | 95.7 µM (inactive) | 56.9 µM (inactive) | 39.3 µM (inactive) | 30.7 µM (inactive) | 40.8 µM (inactive) | 21.4 µM (inactive) | 84.1 µM (inactive) | 19.9 µM (inactive) | – | 71.6 µM (inactive) | 50 µM (inactive) | – | 67.1 µM (inactive) | – | 49 µM (inactive) | 6.17 µM (inactive) | 26.9 µM (inactive) | 89.7 µM (inactive)
7 | NCCCCc1cc(O)c2c(c1O)C(=O)c1ccccc1C2=O | 13.3 µM (inactive) | – | 6.75 µM (inactive) | 15.4 µM (inactive) | 2.81 µM (inactive) | 22.2 µM (inactive) | 4.75 µM (inactive) | 17.5 µM (inactive) | 15.4 µM (inactive) | 14.1 µM (inactive) | 16.5 µM (inactive) | 3.18 µM (inactive) | 5.05 µM (inactive) | 14.3 µM (inactive) | 3.1 µM (inactive) | 13.8 µM (inactive) | 12.6 µM (inactive) | 14.9 µM (inactive) | 7.59 µM (inactive) | 17.1 µM (inactive)
8 | O=C1CSC(c2ccccc2[N+](=O)[O-])N1c1ccc(-n2c(-c3ccccc3)nc3ccccc3c2=O)cc1 (configuration not stated) | > 100 µM (inactive) | 19.5 µM (inactive) | 79.6 µM (inactive) | 23.4 µM (inactive) | 16.6 µM (inactive) | 57.7 µM (inactive) | 37.8 µM (inactive) | 33.4 µM (inactive) | 29.6 µM (inactive) | 24.5 µM (inactive) | – | 19.8 µM (inactive) | 63.2 µM (inactive) | > 100 µM (inactive) | 79.6 µM (inactive) | 46.9 µM (inactive) | 67.9 µM (inactive) | > 100 µM (inactive) | 28.6 µM (inactive) | 47.4 µM (inactive)
9 | O=c1[nH]/c(=C/c2ccc(OCc3ccccc3)cn2)c(=O)[nH]/c1=C/c1ccc(F)cc1 | > 33.3 µM (inactive) | 0.409 µM (active) | 0.207 µM (active) | – | 0.4 µM (active) | 4.97 µM (inactive) | 0.461 µM (active) | 0.938 µM (active) | 4.36 µM (inactive) | 0.33 µM (active) | 0.698 µM (active) | 0.0815 µM (active) | 1.8 µM (inactive) | 2.89 µM (inactive) | 0.154 µM (active) | 1.73 µM (inactive) | – | 0.069 µM (active) | 1.62 µM (inactive) | 3.49 µM (inactive)
10 | O=C1CC(C(CC(=O)c2ccccc2)c2ccccc2)C(=O)c2ccccc2N1 (configuration not stated) | 56 µM (inactive) | 30.8 µM (inactive) | 28.4 µM (inactive) | – | 17.8 µM (inactive) | 29.1 µM (inactive) | 49.3 µM (inactive) | 31.6 µM (inactive) | – | 37.2 µM (inactive) | 33.7 µM (inactive) | 16 µM (inactive) | 38.2 µM (inactive) | > 100 µM (inactive) | 33.1 µM (inactive) | 53.6 µM (inactive) | – | 49.3 µM (inactive) | 35.4 µM (inactive) | 40.5 µM (inactive)
11 | COC1(c2ccc(Cl)cc2)SC=C(C)n2c1noc2=O (configuration not stated) | > 100 µM (inactive) | – | 29.7 µM (inactive) | 63.8 µM (inactive) | > 100 µM (inactive) | > 100 µM (inactive) | 78.7 µM (inactive) | > 100 µM (inactive) | – | > 100 µM (inactive) | > 100 µM (inactive) | > 100 µM (inactive) | > 100 µM (inactive) | > 100 µM (inactive) | > 100 µM (inactive) | > 100 µM (inactive) | > 100 µM (inactive) | > 100 µM (inactive) | > 100 µM (inactive) | > 100 µM (inactive)
